Reference: ChEMBL document CHEMBL1201862, “PubChem BioAssay data set” (2004)
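In this assay, cells in 96-well plates receive the compound at five concentrations for 48 hours. Endpoints are linearly interpolated between the surrounding concentrations. At the GI50, growth is halved.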 Calls of active or inactive are those of the source. No stated cut-off is given here; in the data, active = GI50 up to about 1.1 µM and inactive = higher.

How the values were obtained:
Experiment in all cases: NCI tumour cell line growth inhibition, 48 h
[1] = system: HCC 2998
[2] = system: HOP-92
[3] = system: SW-620
[4] = system: SNB-75
[5] = system: SK-MEL-5
[6] = system: NCI-H460
[7] = system: RXF 393
[8] = system: U-251
[9] = system: COLO 205
[10] = system: MOLT-4
[11] = system: CAKI-1
[12] = system: HL-60
[13] = system: LOX IMVI
[14] = system: DMS-114
[15] = system: DMS-273
[16] = system: SN12C
[17] = system: EKVX
[18] = system: CCRF-CEM
[19] = system: M19-MEL
[20] = system: HCT-116
[21] = system: IGROV-1
[22] = system: SF-268
[23] = system: SK-OV-3
[24] = system: UACC-62
[25] = system: K562
[26] = system: OVCAR-4
[27] = system: KM12
[28] = system: KM-20L2
[29] = system: A549
[30] = system: SK-MEL-2
[31] = system: NCI/ADR-RES
[32] = system: SF-295
[33] = system: OVCAR-5
[34] = system: OVCAR-8
[35] = system: A498
[36] = system: Malme-3M
[37] = system: SNB-19
[38] = system: HOP-62
[39] = system: NCI-H522
[40] = system: NCI-H23
[41] = system: MCF7
[42] = system: HOP-18
[43] = system: HT-29
[44] = system: SNB-78
[45] = system: OVCAR-3
[46] = system: HCT-15
[47] = system: XF498
[48] = system: DLD-1
[49] = system: SF-539
[50] = system: SK-MEL-28
[51] = system: UO-31
[52] = system: NCI-H226
[53] = system: RPMI-8226
[54] = system: UACC-257
[55] = system: TK-10
[56] = system: M14
[57] = system: LXFL 529
[58] = system: RXF 631
[59] = system: ACHN

O=C(NC(Cc1ccc(I)cc1)C(=O)O)c1ccc(Br)cc1 (stereo not drawn)
GI50 [1]: 25.9 µM (inactive) | GI50 [2]: 76.7 µM (inactive) | GI50 [3]: > 100 µM (inactive) | GI50 [4]: 30.1 µM (inactive) | GI50 [5]: > 67.1 µM (inactive) | GI50 [6]: 98.6 µM (inactive) | GI50 [7]: > 100 µM (inactive) | GI50 [8]: 65.8 µM (inactive) | GI50 [9]: > 100 µM (inactive) | GI50 [10]: > 72.9 µM (inactive) | GI50 [11]: > 100 µM (inactive) | GI50 [12]: > 100 µM (inactive) | GI50 [13]: > 100 µM (inactive) | GI50 [14]: 66.2 µM (inactive) | GI50 [15]: > 100 µM (inactive) | GI50 [16]: > 100 µM (inactive) | GI50 [17]: 17.2 µM (inactive) | GI50 [18]: > 66.2 µM (inactive) | GI50 [19]: > 82.2 µM (inactive) | GI50 [20]: > 100 µM (inactive) | GI50 [21]: > 100 µM (inactive) | GI50 [22]: > 100 µM (inactive) | GI50 [23]: > 100 µM (inactive) | GI50 [24]: > 67.3 µM (inactive) | GI50 [25]: > 73.1 µM (inactive) | GI50 [26]: > 85.5 µM (inactive) | GI50 [27]: > 100 µM (inactive) | GI50 [28]: > 100 µM (inactive) | GI50 [29]: > 100 µM (inactive) | GI50 [30]: > 100 µM (inactive) | GI50 [31]: > 100 µM (inactive) | GI50 [32]: > 100 µM (inactive) | GI50 [33]: > 100 µM (inactive) | GI50 [34]: > 100 µM (inactive) | GI50 [35]: > 100 µM (inactive) | GI50 [36]: 80.9 µM (inactive) | GI50 [37]: > 86.7 µM (inactive) | GI50 [38]: > 100 µM (inactive) | GI50 [39]: 64.9 µM (inactive) | GI50 [40]: > 100 µM (inactive) | GI50 [41]: > 60.4 µM (inactive) | GI50 [42]: > 100 µM (inactive) | GI50 [43]: > 100 µM (inactive) | GI50 [44]: > 100 µM (inactive) | GI50 [45]: 89.7 µM (inactive) | GI50 [46]: > 100 µM | GI50 [47]: > 77.6 µM (inactive) | GI50 [48]: > 100 µM (inactive) | GI50 [49]: > 100 µM (inactive) | GI50 [50]: > 100 µM (inactive) | GI50 [51]: > 100 µM (inactive) | GI50 [52]: > 100 µM (inactive) | GI50 [53]: 46.9 µM (inactive) | GI50 [54]: > 100 µM (inactive)

O=C(O)C1CCC(=O)N1C(=O)COc1cc(Cl)c(Cl)cc1Cl (stereo not drawn)
GI50 [2]: 82 µM (inactive) | GI50 [3]: > 100 µM (inactive) | GI50 [4]: 40.6 µM (inactive) | GI50 [5]: > 100 µM (inactive) | GI50 [6]: > 100 µM (inactive) | GI50 [8]: > 100 µM (inactive) | GI50 [9]: > 100 µM (inactive) | GI50 [11]: > 100 µM (inactive) | GI50 [13]: > 100 µM (inactive) | GI50 [55]: > 100 µM (inactive) | GI50 [14]: > 100 µM (inactive) | GI50 [15]: > 100 µM (inactive) | GI50 [16]: > 100 µM (inactive) | GI50 [17]: > 100 µM (inactive) | GI50 [56]: > 100 µM (inactive) | GI50 [19]: > 100 µM (inactive) | GI50 [20]: > 100 µM (inactive) | GI50 [21]: > 100 µM (inactive) | GI50 [22]: > 100 µM (inactive) | GI50 [23]: > 100 µM (inactive) | GI50 [24]: > 100 µM (inactive) | GI50 [26]: > 100 µM (inactive) | GI50 [27]: > 100 µM (inactive) | GI50 [28]: > 100 µM (inactive) | GI50 [29]: > 100 µM (inactive) | GI50 [32]: > 100 µM (inactive) | GI50 [33]: > 100 µM (inactive) | GI50 [34]: > 100 µM (inactive) | GI50 [35]: > 100 µM (inactive) | GI50 [37]: > 100 µM (inactive) | GI50 [39]: > 100 µM (inactive) | GI50 [40]: > 100 µM (inactive) | GI50 [43]: > 100 µM (inactive) | GI50 [44]: > 100 µM (inactive) | GI50 [57]: > 100 µM (inactive) | GI50 [58]: > 100 µM (inactive) | GI50 [45]: > 100 µM (inactive) | GI50 [46]: > 100 µM | GI50 [47]: > 100 µM (inactive) | GI50 [59]: > 100 µM (inactive) | GI50 [50]: > 100 µM (inactive) | GI50 [51]: > 100 µM (inactive) | GI50 [52]: > 100 µM (inactive) | GI50 [54]: > 100 µM (inactive)
